Measured values from patent publication US12055547B2, “TMEM active test and uses thereof in diagnosis, prognosis and treatment of tumors” (Albert Einstein College of Medicine, priority 2015, dated 2024).

Legend:
[1] = system: macrophages; assay: Macrophage depletion in PyMT tumors in the MAFIA mouse model; assay type: in vivo; details: vs vehicle
Excerpt: Summary Tumor cell intravasation at sites of transient vascular permeability associated with TMEM was studied using mouse mammary tumor virus—polyoma middle T antigen (MMTV-PyMT) autochthonous and implanted models of human patient-derived mammary carcinoma. Single cell resolution of cell activity at TMEM in live animals was achieved using extended time-lapse imaging on a custom-built two-laser multiphoton microscope. To investigate the role of macrophages in tumor cell intravasation and blood vessel permeability, the MAFIA mouse model was used to deplete macrophages. Observation of extravascular dextran, vascular junction proteins and protein expression in tissue was performed using immunofluorescence microscopy. Further investigation of the mechanism of macrophage-mediated tumor cell intravasation and blood vessel permeability at TMEM utilized anti-mouse-VEGFA inhibitory antibody and the ablation of Vegfa expression in monocytes using a myeloid-specific (Csf1r promoter), tamoxifen-inducible Cre expressing mouse strain was crossed with Vegfa^flox/flox mice with gene ablation induced with tamoxifen.
Immunofluorescence image analysis. […] The remaining extravascular dextran area, and blood vessel area were then measured. […]

[2] = system: Tie2 macrophage function in TMEM; assay: TMEM density and TMEM activity (IV-dextran/ZO-1 staining) in tumor after rebastinib; assay type: in vivo
Excerpt: FIG. 11A-11B. […] (B) Quantification of vascular permeability activity of tumor TMEM using vascular permeability marker IV-dextran/ZO-1 staining intensity (n=7 and 9; * , P=0.0177).
The relative activity of TMEM can be quantified in (e.g., FFPE) tissue sections in several ways, e.g.: • 1. as the ratio of IV-dextran (or other IV contrast agent) that has leaked from the blood vessel into the tissue at the time of Formaldehyde Fixation after IV injection of contrast agent in preparation for FFPE (measure of local vascular permeability) divided by ZO-1 or VE-Cad staining intensity at TMEM (FIG. 11). Higher dextran/ZO-1=more TMEM activity; • 2. as the ratio of ZO-1 or VE-Cad staining intensity at TMEM per area of blood vessel (CD31 staining area) (FIG. 12). Higher VE-Cad or ZO-1/CD31=less TMEM activity; • 3. as the absolute intensity of ZO-1 or VE-Cad staining intensity at TMEM sites (FIG. 10). Higher VE-Cad staining=less TMEM activity.
The activity status of TMEM (TMEM^Active) in patient tissue samples can be used to assess the efficacy of dissemination inhibitor drugs that inhibit TMEM activity. For example, observe the effects of the following dissemination inhibitors on TMEM^Active using the quantitation methods for TMEM activity described in #1-3 above as follows: • a. Rebastinib, the Tie2 inhibitor which blocks VEGF^Hi TMEM macrophage function, (FIG. 11); • b. […]

Row | SMILES | blood vessel permeability (extravascular 155 kDa dextran-TMR) ([1]; FIG. 5E) | tumor cell intravasation (circulating tumor cells) ([1]; FIG. 5F) | TMEM density in 10 40× fields ([2]; FIG. 11A) | vascular permeability activity of tumor TMEM (IV-dextran/ZO-1 staining intensity) ([2]; FIG. 11B, n=7 and 9, P=0.0177)
1 | CC[C@H](C(=O)N1CCCC[C@H]1C(=O)O[C@H](CCc1ccc(OC)c(OC)c1)c1cccc(OCC(=O)NCC(CNC(=O)COc2cccc([C@@H](CCc3ccc(OC)c(OC)c3)OC(=O)[C@@H]3CCCCN3C(=O)[C@@H](CC)c3cc(OC)c(OC)c(OC)c3)c2)CN(C)C)c1)c1cc(OC)c(OC)c(OC)c1 [B/B homodimerizer] | reduces | reduces |  | 
2 | CNC(=O)c1cc(Oc2ccc(NC(=O)Nc3cc(C(C)(C)C)nn3-c3ccc4ncccc4c3)c(F)c2)ccn1 [Rebastinib] |  |  | not significant | inhibits TMEM activity
